Measurements taken from ChEMBL document CHEMBL1201862, “PubChem BioAssay data set” (2004).
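The compound was tested at five concentrations on cells cultured in 96-well plates, with a 48-hour exposure period. Here, GI50 denotes the concentration required for 50% inhibition of growth.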 Calls of active or inactive are those of the source. No stated cut-off is given here; in the data, active = GI50 up to about 1.1 µM and inactive = higher.

Experiments:
Assay in all cases: growth of human tumour cells (NCI), 48 h
OVCAR-5 = test system: OVCAR-5
NCI-H226 = test system: NCI-H226
TK-10 = test system: TK-10
KM12 = test system: KM12
SK-MEL-28 = test system: SK-MEL-28
A498 = test system: A498
UO-31 = test system: UO-31
CAKI-1 = test system: CAKI-1
NCI/ADR-RES = test system: NCI/ADR-RES
786-0 = test system: 786-0
SF-268 = test system: SF-268
MOLT-4 = test system: MOLT-4
SR = test system: SR
UACC-257 = test system: UACC-257
SN12C = test system: SN12C
HL-60 = test system: HL-60
SK-OV-3 = test system: SK-OV-3
CCRF-CEM = test system: CCRF-CEM
HOP-92 = test system: HOP-92

Measured: GI50

CCOC(=O)C1(Cc2ccc3c(c2)CCC3)Cc2cc3c(cc2C1=O)CCC3 (configuration not stated)
inactive: OVCAR-5 > 100 µM | NCI-H226 > 83 µM | TK-10 > 100 µM | KM12 > 50.9 µM | SK-MEL-28 > 100 µM | A498 > 42.7 µM | UO-31 42.3 µM | CAKI-1 > 46.3 µM | NCI/ADR-RES 36 µM | 786-0 > 100 µM | SF-268 98.4 µM | MOLT-4 11.9 µM | SR 44.3 µM | UACC-257 31.3 µM | SN12C 66.2 µM | HL-60 2.84 µM | SK-OV-3 > 100 µM | CCRF-CEM 11.9 µM

O=c1cc(NNCc2ccccc2)[nH]c(=O)[nH]1
inactive: OVCAR-5 > 100 µM | NCI-H226 > 100 µM | TK-10 > 100 µM | KM12 > 100 µM | SK-MEL-28 > 100 µM | A498 > 100 µM | UO-31 74 µM | CAKI-1 > 100 µM | NCI/ADR-RES > 100 µM | 786-0 > 100 µM | SF-268 > 100 µM | MOLT-4 69.2 µM | SR > 100 µM | UACC-257 > 100 µM | SN12C > 100 µM | HOP-92 4.68 µM | HL-60 > 100 µM | CCRF-CEM > 100 µM

O=C(O)c1nc2ccc(C(F)(F)F)cc2nc1NCc1ccc(Cl)c(Cl)c1
inactive: OVCAR-5 13.5 µM | NCI-H226 17.3 µM | KM12 16.3 µM | SK-MEL-28 17.6 µM | A498 17.5 µM | UO-31 13.4 µM | CAKI-1 19.2 µM | NCI/ADR-RES 22.2 µM | 786-0 15.9 µM | MOLT-4 12.3 µM | SR 15.6 µM | UACC-257 21.2 µM | SN12C 15.5 µM | HOP-92 15.7 µM | SK-OV-3 19.4 µM | CCRF-CEM 23.4 µM

CS(=O)(=O)Nc1ccc2c(c1)N(S(C)(=O)=O)CC2CCl (configuration not stated)
inactive: OVCAR-5 > 100 µM | NCI-H226 > 100 µM | TK-10 > 100 µM | KM12 > 100 µM | SK-MEL-28 > 100 µM | A498 > 100 µM | UO-31 > 100 µM | CAKI-1 > 100 µM | NCI/ADR-RES > 100 µM | 786-0 > 100 µM | SF-268 > 100 µM | MOLT-4 > 100 µM | SR > 100 µM | UACC-257 > 100 µM | SN12C > 100 µM | HOP-92 > 100 µM | HL-60 > 100 µM | CCRF-CEM > 100 µM

COc1ccccc1Cn1[nH]c(=O)c2cc([N+](=O)[O-])ccc21
inactive: OVCAR-5 > 100 µM | NCI-H226 > 100 µM | TK-10 > 100 µM | KM12 > 100 µM | SK-MEL-28 > 100 µM | A498 26.5 µM | UO-31 > 100 µM | CAKI-1 > 100 µM | NCI/ADR-RES 75.5 µM | 786-0 42 µM | SF-268 48.5 µM | MOLT-4 > 100 µM | SR > 100 µM | UACC-257 > 100 µM | SN12C > 100 µM | HOP-92 24.7 µM | HL-60 86.5 µM | CCRF-CEM > 100 µM

O=C(O)c1nc2ccc(C(F)(F)F)cc2nc1Nc1ccc(Cl)c(Cl)c1
inactive: OVCAR-5 14.4 µM | NCI-H226 10.6 µM | TK-10 20 µM | KM12 6.98 µM | SK-MEL-28 13 µM | A498 13.6 µM | UO-31 4.48 µM | CAKI-1 15.5 µM | NCI/ADR-RES 5.96 µM | 786-0 10.5 µM | SF-268 4.46 µM | MOLT-4 4.37 µM | SR 4.15 µM | UACC-257 29.2 µM | SN12C 7.67 µM | HL-60 5.62 µM

Nc1nccc(NCC2(CO)CC(OCc3ccccc3)C2)n1 (configuration not stated)
inactive: OVCAR-5 > 100 µM | NCI-H226 > 100 µM | KM12 > 100 µM | SK-MEL-28 > 100 µM | A498 > 100 µM | UO-31 84.5 µM | CAKI-1 > 100 µM | NCI/ADR-RES > 100 µM | 786-0 > 100 µM | SF-268 > 10 µM | MOLT-4 > 100 µM | SR > 100 µM | UACC-257 > 100 µM | SN12C > 100 µM | HOP-92 56.9 µM | HL-60 > 100 µM | CCRF-CEM > 100 µM

CCOC(=O)C1(C(=O)OCC)OC(C)=NC1(C(=O)OC)C(=O)OC
inactive: OVCAR-5 > 100 µM | NCI-H226 > 62.5 µM | TK-10 > 100 µM | KM12 > 100 µM | SK-MEL-28 > 100 µM | A498 > 100 µM | UO-31 > 100 µM | CAKI-1 > 100 µM | NCI/ADR-RES > 100 µM | 786-0 > 100 µM | SF-268 > 100 µM | MOLT-4 > 87.1 µM | SR > 27.7 µM | UACC-257 > 100 µM | SN12C > 100 µM | HL-60 1.15 µM | SK-OV-3 > 100 µM | CCRF-CEM > 100 µM

Cc1n[nH]c(=O)n1/N=C/c1ccc(Cl)cc1
inactive: OVCAR-5 > 100 µM | KM12 > 100 µM | SK-MEL-28 > 100 µM | A498 40 µM | UO-31 61.1 µM | CAKI-1 52.2 µM | NCI/ADR-RES 49.3 µM | 786-0 > 100 µM | SF-268 44.9 µM | MOLT-4 54.3 µM | SR 34.4 µM | UACC-257 81.8 µM | SN12C 70.6 µM | HOP-92 32.9 µM | SK-OV-3 83.4 µM | CCRF-CEM 31.1 µM

O=c1ccn([C@@H]2C[C@H]2CO)c(=O)[nH]1
inactive: OVCAR-5 > 100 µM | NCI-H226 > 100 µM | TK-10 > 100 µM | KM12 > 100 µM | SK-MEL-28 > 100 µM | A498 > 100 µM | UO-31 > 100 µM | CAKI-1 > 100 µM | NCI/ADR-RES > 100 µM | 786-0 > 100 µM | SF-268 > 100 µM | MOLT-4 > 100 µM | SR > 100 µM | UACC-257 > 100 µM | SN12C > 100 µM | HOP-92 > 100 µM | HL-60 > 100 µM | CCRF-CEM > 100 µM

O=Cc1ccc(OCc2cccc(COc3ccc(/C=N\Nc4ccc([N+](=O)[O-])cc4[N+](=O)[O-])cc3)n2)cc1
inactive: OVCAR-5 > 100 µM | NCI-H226 > 100 µM | TK-10 > 100 µM | KM12 > 100 µM | SK-MEL-28 > 100 µM | A498 > 100 µM | UO-31 > 100 µM | CAKI-1 > 100 µM | NCI/ADR-RES > 100 µM | 786-0 > 100 µM | SF-268 > 100 µM | MOLT-4 33.9 µM | SR 22.1 µM | UACC-257 > 100 µM | SN12C > 100 µM | HL-60 > 100 µM | CCRF-CEM 55.1 µM

c1ccc(NNC2=NCCN2)cc1
inactive: OVCAR-5 > 100 µM | NCI-H226 > 100 µM | TK-10 > 100 µM | KM12 > 100 µM | SK-MEL-28 > 100 µM | A498 > 100 µM | UO-31 > 100 µM | CAKI-1 > 100 µM | NCI/ADR-RES > 100 µM | 786-0 > 100 µM | SF-268 > 100 µM | MOLT-4 > 100 µM | SR > 100 µM | UACC-257 > 100 µM | SN12C > 100 µM | HL-60 > 100 µM | SK-OV-3 > 100 µM | CCRF-CEM > 100 µM

C#CCCOC(=O)c1ccccc1OC(C)=O
inactive: OVCAR-5 > 100 µM | NCI-H226 > 100 µM | TK-10 > 100 µM | KM12 > 100 µM | A498 > 100 µM | UO-31 > 100 µM | CAKI-1 > 100 µM | NCI/ADR-RES > 100 µM | 786-0 > 100 µM | SF-268 > 100 µM | MOLT-4 > 100 µM | SR > 100 µM | UACC-257 > 100 µM | SN12C > 100 µM | HOP-92 > 100 µM | SK-OV-3 > 100 µM | CCRF-CEM > 100 µM

O=C(/C=C/c1ccc(O)cc1)c1cc(-c2cc(CCC(=O)c3ccc(O)cc3O)ccc2O)c(O)cc1O
inactive: OVCAR-5 > 50 µM | TK-10 18.1 µM | KM12 19.8 µM | SK-MEL-28 21.7 µM | A498 24.8 µM | UO-31 > 50 µM | CAKI-1 > 50 µM | NCI/ADR-RES > 50 µM | 786-0 25.6 µM | SF-268 22.4 µM | MOLT-4 7.23 µM | SR 10.4 µM | UACC-257 > 50 µM | SN12C 32.2 µM | HOP-92 15.2 µM | HL-60 17.9 µM | SK-OV-3 16.9 µM | CCRF-CEM 13.1 µM

COc1cc2oc(-c3ccc(O)cc3)cc(=O)c2c(OC)c1OC
inactive: OVCAR-5 > 100 µM | NCI-H226 > 100 µM | TK-10 > 100 µM | KM12 > 100 µM | SK-MEL-28 > 100 µM | A498 > 100 µM | UO-31 > 100 µM | CAKI-1 > 100 µM | NCI/ADR-RES > 100 µM | 786-0 > 100 µM | SF-268 > 100 µM | MOLT-4 > 100 µM | SR > 100 µM | UACC-257 > 100 µM | SN12C > 100 µM | HOP-92 > 100 µM | HL-60 > 100 µM | CCRF-CEM > 100 µM

COc1c2ccoc2cc2oc(=O)ccc12 [BERGAPTEN]
inactive: OVCAR-5 > 100 µM | NCI-H226 > 100 µM | TK-10 > 100 µM | SK-MEL-28 > 100 µM | A498 > 100 µM | CAKI-1 > 100 µM | NCI/ADR-RES > 100 µM | 786-0 > 100 µM | SF-268 > 100 µM | MOLT-4 > 100 µM | SR > 100 µM | UACC-257 > 100 µM | SN12C > 100 µM | HOP-92 > 100 µM | HL-60 > 100 µM | CCRF-CEM > 100 µM
